Measurements from patent US20240196932A1, “NOVEL USE” (DSM IP Assets B.V., priority 2021, published 2024).

Tested on: rumen liquor
Assay: In vitro test for methane production (modified Hohenheim Forage value Test, HFT)
Type: cell-based
Details: for Total methane change [% vs. control]: TMR feed, 8 hours at 39° C, average of four to eight experiments
Procedure: In vitro test for methane production: A modified version of the “Hohenheim Forage value Test (HFT)” was used for testing the effect of specific compounds on the rumen functions mimicked by this in-vitro system.
Principle: Feed is gadded into a syringe with a composition of rumen liquor and an appropriate mixture of buffers. The solution is incubated at 39° C. After 8 hours the quantity (and composition) of gas phase produced is measured and put into a formula for conversion.
Sample weighing: The feed stuff (i.e. TMR (44% concentrate, 6% hay, 37% maize silage and 13% grass silage) is sieved to 1 mm and weighed exactly into 64 syringes. 4 of these syringes are the substrate controls, which display the gas production without the effect of the tested compounds. The remaining syringes contain the test substances, by groups of 4 syringes.
The components are mixed in a Woulff bottle in following order: • 711 ml water • 0.18 ml trace element solution • 355.5 ml buffer solution • 355.5 ml mass element solution • The completed solution is warmed up to 39° C.followed by the addition of 1.83 ml sodium salt solution and the addition of reduction solution at 36° C. The rumen liquor is added, when the indicator turns colourless.
Extraction of the rumen liquor: 750 ml of rumen liquor are added to approximately 1,400 ml of medium solution under continued agitation and CO2-gassing.
Filling the syringes, incubation and determining gas volumes and VFA values: The diluted rumen fluid (24 ml) is added to the glass syringe. The syringes are then incubated for 8 hours at 39° C.under gentle agitation. After 8 hours, the volume of gas produced is measured, and the percentage of methane in the gas phase is determined by gas chromatography.
The food fermented was artificial TMR (44% concentrate, 6% hay, 37% maize silage and 13% grass silage). Gossypol was obtained from Sigma-Aldrich (G8761), and used at a concentration as outlined in table 1. 3-Nitrooxy-propanol (3-NOP) was used at the concentration as outlined in table 1.

`Cc1cc2c(C(C)C)c(O)c(O)c(C=O)c2c(O)c1-c1c(C)cc2c(C(C)C)c(O)c(O)c(C=O)c2c1O` (racemic) [gossypol, Gossypol] was tested, and the “Total methane change [% vs. control]” value (gossypol 5 μM, listed as prints 2 g/animal/day) was −1 % vs. control, the “Total methane change [% vs. control]” value (gossypol 10 μM, listed as prints 4.3 g/animal/day) was −11 % vs. control and the “Total methane change [% vs. control]” value (gossypol 20 μM, listed as prints 8.6 g/animal/day) was −15 % vs. control. The “Total methane change [% vs. control]” value (gossypol 100 μM, listed as prints 17.3 g/animal/day) was −69 % vs. control and the methane reduction (gossypol concentrations of at least 7.5 g gossypol/animal/day) was “Clear effects”.
